Laboratory results from US20030195168A1, “Therapeutic agents - III” (priority 2000, published 2003).

Key:
MM96L cells = assay: Effect of Euphorbiaceae saps on MM96L cells (cytotoxicity, bipolar dendritic phenotype); assay type: cell-based; conditions: 1 μg/mL or 10 μg/mL
Procedure: Sap was collected from Synadenium grantii, Synadenium compactum, Mondenium lugardae, Mondenium guentheri, Endadenium gossweileni, and E. peplus and serially diluted ten-fold up to 10^−7into sterile 1.5 mL Eppendorf™ tubes using growth medium. […] After 3 days, cells were examined for cytotoxicity or differentiation to a bipolar dendritic phenotype.

[1] = tested on: Peripheral blood mononuclear cells (PBMC); assay: Respiratory burst (H2O2) in PBMC, DCFH-DA flow cytometry; assay type: cell-based
Procedure: Experiments were also carried out using 2′,7′-dichlorofluorescein diacetate (DCFH-DA) to measure the production of H2O2.(J P Robinson, Oxidative burst methods, in Handbook of Flow Cytometry Methods, Wiley-Liss Inc, pp147-149, 1993). H2O2 oxidizes the non-fluorescent probe (DCFH-DA) to a fluorescent probe that can then be detected by a flow cytometer. Peripheral blood mononuclear cells (PBMC) were extracted from a donor blood sample by lysis of heparinized blood and used in a suspension of 1×10^6/mL of phosphate buffer, pH 7.3. The cells were then incubated with DCFH-DA (1 μL/mL of 20 mM stock) for 15 minutes to allow it to be taken up and trapped by hydrolysis with cellular esterases. The cells were then stimulated by test compounds for 15 min at 37° C. Controls included in the experiment were unloaded control (cells with no DCFH-DA) and loaded control (cells with DCFH-DA, but no stimulation). These were used to monitor the non-specific oxidation of unstimulated cells. The cells were then analyzed on the flow cytometer (excitation at 488 nm, emission at 525±20 nm), gating each sample for individual cell populations-granulocytes, monocytes and lymphocytes (Table 3).

[2] = tested on: phorbol ester binding site of PKC; assay: [3H]-phorbol dibutyrate competition assay on rat brain homogenate
Procedure: A competition assay was performed to determine whether the diterpene esters of the instant invention bind to the phorbol ester binding site of PKC. […] This binding was not blocked by co-incubation with bisindolylmaleimide.

[3] = tested on: peripheral blood mononuclear cells (PBMCs); assay: Phagocytosis with fluorescent beads; assay type: cell-based; conditions: whole heparinized blood, 30 min at 37° C.
Procedure: Phagocytosis by peripheral blood mononuclear cells (PBMCs) was assayed (Steinkamp et al., 1982) using 1 μm Fluoresbrite™ yellow-green fluorescent latex spheres (Polysciences, Inc., Warrington, Pa.). A sample of whole, heparinized blood was treated with drug and 5×10E7 fluorescent latex beads in 10 μL of PBS added per mL of suspension. Cells were incubated and maintained in suspension for 30 min by means of a shaker platform at 37° C. The stirnulated and non-stimulated samples were then lysed to isolate PBMCs. The PBMCs were run on the flow cytometer measuring FITC (excitation at 488 nm, emission at 525±20 nm), gated for fluorescence (phagocytosed spheres) and light scatter (cell size).

[4] = tested on: MM96L human melanoma cells; assay: Leukocyte killing of tumor cells, [3H]-thymidine labelling; assay type: cell-based; conditions: 100:1 effector:target, 48 hr
Procedure: (§1) Leukocytes obtained by lysis of human peripheral blood were added to 5000 MM96L human melanoma cells or 7000 neonatal foreskin fibroblasts per microtitre well at effector: target ratios of 1000, 100 and 10:1. Ing9 (60 ng/mL) was added and after 48 hr incubation the cultures were washed and labelled with [3H]-thymidine for 2 hr. […] Untreated leukocytes had no effect on cell survival.
as §1, with “The target cells had been treated with 60 ng/mL PEP008 for 20 hr beforehand,” for “Ing9 (60 ng/mL) was added”, “washed and the medium replaced before the leukocytes were added. After” for “after”, “incubation with the leukocytes” for “incubation”

adenovirus 5 = assay: Adenovirus 5 replication in human melanoma cells; assay type: cell-based; conditions: 2 days
From the text: Human melanoma cells were infected with ten-fold dilutions of adenovirus 5 in culture, treated with dilutions of PEP005, PEP006, PEP008 and PEP010 and adenovirus replication determined 2 days later by immunhistochemical detection of virus-replicating cells.

[5] = tested on: neonatal foreskin fibroblasts; assay: Leukocyte killing of normal cells, [3H]-thymidine labelling; assay type: cell-based, human; conditions: 100:1 effector:target, 48 hr
Procedure: as §1
as §1, with “The target cells had been treated with 60 ng/mL PEP008 for 20 hr beforehand,” for “Ing9 (60 ng/mL) was added”, “washed and the medium replaced before the leukocytes were added. After” for “after”, “incubation with the leukocytes” for “incubation”

PKCα = target: T1, PKCα (Homo sapiens, UniProt P17252); assay type: cell-based; conditions: HeLa
T1 construct: host or cells: HeLa cells
Procedure: (§2) Five EGFP-PKC isoforms (Clontech) were available for this experiment, enabling the screening of the three predominant PKC families (i.e. classical, novel and atypical PKCs). The members of the various PKC families are α, β, and γ (classical), θ (novel) and ζ (atypical).
(§3) HeLa cells were plated out in a 24-well plate containing coverslips and transfected with PKC isoforms fused to EGFP, using a commercially available effectine-transfection kit (QIAGEN, Pty. Ltd.). Cells were exposed to the transfection reagents for 16-24 hr. Subsequently, transfected cells were treated for one hour with TPA (100 ng/mL), bryostatin-1 (5 pg/mL), PEP003 (2.25 μg/mL; 5 μM) or PEP005 ([…]) 1.5 μM). Following treatment, cells were fixed on coverslips and mounted on glass slides. The slides were subsequently examined visually by fluorescence microscopy, photographed, and over 150 cells were counted/treatment/PKC isoform. Counted cells were classified according to the localisation of the PKC-EGFP fluorescence as either cytoplasmic or plasma membrane using ImagePro™ 4.1 (FIG. 5). […] The number of these cells was also counted.

PKCβ = target: T2, PKCβ (Homo sapiens, UniProt P05771); assay: EGFP-PKC isoform translocation in HeLa cells; assay type: cell-based; conditions: for number of PKCβ transfected cells with Golgi-like fluorescence: one hour treatment; for translocation of PKCβ to the plasma membrane: one hour, TPA 100 ng/mL, bryostatin-1 5 pg/mL, PEP003 2.25 μg/mL (5 μM), PEP005 670 μg/mL (1.5 μM)
T2 construct: host or cells: HeLa cells
T2 sequence (P05771 whole entry, species assumed, canonical isoform): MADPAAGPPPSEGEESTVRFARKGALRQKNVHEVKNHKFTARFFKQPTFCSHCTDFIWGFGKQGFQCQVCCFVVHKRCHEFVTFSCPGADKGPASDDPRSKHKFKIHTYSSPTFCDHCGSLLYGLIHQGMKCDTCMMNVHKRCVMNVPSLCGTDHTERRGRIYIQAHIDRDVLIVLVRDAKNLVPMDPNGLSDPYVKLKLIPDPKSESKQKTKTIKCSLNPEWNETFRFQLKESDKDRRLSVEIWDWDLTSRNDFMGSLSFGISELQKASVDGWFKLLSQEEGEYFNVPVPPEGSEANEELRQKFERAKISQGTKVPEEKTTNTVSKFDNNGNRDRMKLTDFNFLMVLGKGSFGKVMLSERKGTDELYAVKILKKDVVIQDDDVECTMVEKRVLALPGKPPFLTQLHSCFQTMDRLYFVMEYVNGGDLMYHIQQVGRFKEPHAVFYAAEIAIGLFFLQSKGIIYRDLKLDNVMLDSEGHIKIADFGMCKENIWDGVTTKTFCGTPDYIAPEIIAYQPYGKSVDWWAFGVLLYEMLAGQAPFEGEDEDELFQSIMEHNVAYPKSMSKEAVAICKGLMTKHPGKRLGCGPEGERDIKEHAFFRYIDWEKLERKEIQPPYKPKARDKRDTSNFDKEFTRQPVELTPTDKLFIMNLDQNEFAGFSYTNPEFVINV
Procedure: as §2
as §3, with “counted. Results are presented as an average and standard deviation of percentages of cells (Table 1).” for “counted.”

PKCγ = target: T3, PKCγ (Homo sapiens, UniProt P05129); assay: EGFP-PKC isoform translocation in HeLa cells; assay type: cell-based
T3 construct: host or cells: HeLa cells
Procedure: as §2
as §3, with “counted. Results are presented as an average and standard deviation of percentages of cells (Table 1).” for “counted.”

PKCθ = target: T4, PKCθ (Homo sapiens, UniProt Q04759); assay: EGFP-PKC isoform translocation in HeLa cells; assay type: cell-based; conditions: one hour, TPA 100 ng/mL, bryostatin-1 5 pg/mL, PEP003 2.25 μg/mL (5 μM), PEP005 670 μg/mL (1.5 μM)
T4 construct: host or cells: HeLa cells
T4 sequence (Q04759 whole entry, canonical isoform): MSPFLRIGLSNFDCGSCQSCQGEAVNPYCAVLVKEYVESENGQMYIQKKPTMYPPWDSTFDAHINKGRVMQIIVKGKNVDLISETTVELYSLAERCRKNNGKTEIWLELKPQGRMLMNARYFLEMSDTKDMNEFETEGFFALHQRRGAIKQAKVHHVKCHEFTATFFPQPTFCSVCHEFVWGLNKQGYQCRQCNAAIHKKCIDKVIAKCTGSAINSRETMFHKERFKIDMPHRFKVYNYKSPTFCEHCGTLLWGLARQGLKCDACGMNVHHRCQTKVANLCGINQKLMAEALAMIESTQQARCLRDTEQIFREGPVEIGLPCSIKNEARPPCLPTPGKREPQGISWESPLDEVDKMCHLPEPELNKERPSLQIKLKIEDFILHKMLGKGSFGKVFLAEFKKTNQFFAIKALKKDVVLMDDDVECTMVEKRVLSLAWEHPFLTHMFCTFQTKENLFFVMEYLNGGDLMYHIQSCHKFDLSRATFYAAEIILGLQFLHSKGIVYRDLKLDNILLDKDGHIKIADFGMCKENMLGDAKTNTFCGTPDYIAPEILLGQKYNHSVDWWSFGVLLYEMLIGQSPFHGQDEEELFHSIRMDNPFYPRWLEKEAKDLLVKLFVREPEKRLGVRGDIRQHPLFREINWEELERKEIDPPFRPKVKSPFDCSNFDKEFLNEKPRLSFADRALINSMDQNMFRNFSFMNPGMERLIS
Procedure: as §2
as §3, with “counted. Results are presented as an average and standard deviation of percentages of cells (Table 1).” for “counted.”

PKCζ = target: T5, PKCζ (Homo sapiens, UniProt Q05513); assay: EGFP-PKC isoform translocation in HeLa cells; assay type: cell-based; conditions: one hour, TPA 100 ng/mL, bryostatin-1 5 pg/mL, PEP003 2.25 μg/mL (5 μM), PEP005 670 μg/mL (1.5 μM)
T5 construct: host or cells: HeLa cells
T5 sequence (Q05513 1-592): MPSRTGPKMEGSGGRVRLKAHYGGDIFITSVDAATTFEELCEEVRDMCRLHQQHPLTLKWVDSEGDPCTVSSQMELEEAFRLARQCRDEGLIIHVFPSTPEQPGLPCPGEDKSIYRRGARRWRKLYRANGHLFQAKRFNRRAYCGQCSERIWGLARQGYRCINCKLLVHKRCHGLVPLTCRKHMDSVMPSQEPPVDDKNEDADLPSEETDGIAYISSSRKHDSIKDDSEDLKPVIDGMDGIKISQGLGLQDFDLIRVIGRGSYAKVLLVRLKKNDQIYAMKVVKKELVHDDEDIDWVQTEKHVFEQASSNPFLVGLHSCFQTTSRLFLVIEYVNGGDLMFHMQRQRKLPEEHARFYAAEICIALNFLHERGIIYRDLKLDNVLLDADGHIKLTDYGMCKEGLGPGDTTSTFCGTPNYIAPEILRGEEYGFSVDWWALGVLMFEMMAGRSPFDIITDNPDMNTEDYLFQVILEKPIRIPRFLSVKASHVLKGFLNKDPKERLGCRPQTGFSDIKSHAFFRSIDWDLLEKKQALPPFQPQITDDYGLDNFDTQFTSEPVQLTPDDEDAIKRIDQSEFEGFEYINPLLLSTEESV
Procedure: as §2
as §3, with “counted. Results are presented as an average and standard deviation of percentages of cells (Table 1).” for “counted.”

rat brain PKC = assay: PepTag non-radioactive PKC kinase activity assay; conditions: FIG. 1; TPA 100-0.01 ng/ml; ether extract final dilution 1 in 5; aqueous layer and crude sap diluted 1/25
Procedure: The kinase activity of rat brain PKC (Promega) was determined using the Peptag™ Non-Radioactive Protein Kinase Kit (Promega). Using agarose gel electrophoresis the technique visualises the opposing electrostatic charge of a fluorescently labeled peptide ([sequence]) compared to the phosphorylated version of the same peptide.
The reaction mixture was separated by gel electrophoresis, showing migration of the unreacted substrate (a) to the anode (top), and the product (b), which is more negatively charged because of phosphorylation by PKC, moving towards the cathode (bottom).

HIV-strain pNL4-3 = assay: HIV-1 replication in acutely infected PBMC (CA-p24 ELISA); assay type: cell-based; conditions: 2.8 μM
Procedure: Experiments were conducted to assess the effect of the compounds of the instant invention on HIV-1 replication in acutely infected T cells. Peripheral blood mononuclear cells (PBMC) were obtained from non-HIV-1, non-HIV-2, non-Hepatitis B/C infected donors, stimulated with phytohemagglutinin-M and grown in culture media supplemented with 10 U/mL interleukin-2. The activated PBMC were infected with […] (Low Titre) and 100 ng (High Titre) of CA-p24 equivalents of the HIV-strain pNL4-3. Cells were infected for two hr after which, the virus was removed and the cells were washed with culture media. Equivalent numbers of cells were seeded into 24 well plates and compounds were added to the cultured cells that included: TPA at 8 riM and 80 nM, Ingenol at 280 nM, PEP003 at 500 nM, 50 nM and 5 nM, or PEP004 at dilutions of 1×10^4 and 1×10^5 from the stock (final concentrations). In addition, uninfected activated PBMC were grown in the presence of TPA (80 nM), Ingenol (280 nM), PEP003 (500 nM) and PEP004 (1×10^4 dilution). Other cultures were neither infected nor treated with any compound, or infected but not treated with any compound. Supernatant was removed from each culture at day 0, 3, 7, and 10. The amount of HIV-1 CA-p24 was determined using a commercially available ELISA assay. Three independent experiments were performed.

[6] = target cells pre-treated with 60 ng/mL for 20 hr, washed

bisindolylmaleimide
effect of PKC inhibitor on sap-induced differentiation of MM96L cells (MM96L cells): this differentiation is inhibited | block of the respiratory burst by PKC inhibitor ([1]; 10 μg/mL or 1 μg/mL, added at the same time as test compounds): blocked the respiratory burst | binding to the phorbol ester binding site of PKC [2]: does not

C/C=C(/C)C(=O)O[C@H]1C(C)=C[C@]23C(=O)[C@@H](C=C(COC(C)=O)[C@@H](O)[C@]12O)[C@H]1[C@@H](C[C@H]3C)C1(C)C [PEP008, 20-O-acetyl-ingenol-3-angelate]
stimulation of phagocytosis of fluorescent latex beads [3]: stimulate phagocytosis in PBMCs | survival of melanoma cells ([4]; 60 ng/mL added with leukocytes): 9% | survival of melanoma cells [4, 6]: 12% | increase of adenovirus replication (number of stained cells) (adenovirus 5; 226 ng/mL): 248% | survival of normal fibroblasts ([5]; 60 ng/mL added with leukocytes): 100% | survival of normal fibroblasts [5, 6]: 100%

C/C=C(/C)C(=O)O[C@H]1C(C)=C[C@]23C(=O)[C@@H](C=C(CO)[C@@H](O)[C@]12O)[C@H]1[C@@H](C[C@H]3C)C1(C)C [PEP005, 20-hydroxy-ingenol-3-angelate]
stimulation of phagocytosis of fluorescent latex beads [3]: stimulate phagocytosis in PBMCs | number of PKCα transfected cells displaying Golgi-like fluorescence (PKCα; one hour treatment): increase in the number of cells displaying Golgi-like fluorescence | translocation of PKCα to the plasma membrane (PKCα; one hour, TPA 100 ng/mL, bryostatin-1 5 pg/mL, PEP003 2.25 μg/mL (5 μM)): translocated from the cytoplasm to the plasma membrane | increase of adenovirus replication (number of stained cells) (adenovirus 5; 67 ng/mL): 344% | number of PKCβ transfected cells with Golgi-like fluorescence (PKCβ): decreases the number of cells with PKCβ concentrated in the Golgi | translocation of PKCβ to the plasma membrane (PKCβ): translocated from the cytoplasm to the plasma membrane | number of PKCγ transfected cells displaying Golgi-like fluorescence (PKCγ; one hour treatment): increase in the number of cells displaying Golgi-like fluorescence | translocation of PKCγ to the plasma membrane (PKCγ; one hour, TPA 100 ng/mL, bryostatin-1 5 pg/mL, PEP003 2.25 μg/mL (5 μM), PEP005 670 μg/mL (1.5 μM)): translocated from the cytoplasm to the plasma membrane | translocation of PKCθ (PKCθ): does not induce any change | translocation of PKCζ (PKCζ): fail to induce translocation

phosphatidyl serine
activation of PKC (phosphorylation of fluorescent PepTag substrate) (rat brain PKC): strong activation

CC1=C[C@]23C(=O)[C@@H](C=C(CO)[C@@H](O)[C@]2(O)[C@H]1O)[C@H]1[C@@H](C[C@H]3C)C1(C)C [Ingenol]
reduction of HIV-1 replication rate (HIV-strain pNL4-3): approximately 35%

CCC/C=C/C=C/C(=O)O[C@H]1/C(=C/C(=O)OC)C[C@H]2C[C@H]([C@@H](C)O)OC(=O)C[C@H](O)C[C@@H]3C[C@H](OC(C)=O)C(C)(C)[C@](O)(C[C@@H]4C/C(=C/C(=O)OC)C[C@H](/C=C/C(C)(C)[C@]1(O)O2)O4)O3 [bryostatin-1]
induction of a respiratory burst (H2O2, DCFH-DA) ([1]; 15 min at 37° C., granulocytes, monocytes, lymphocytes): All compounds except Bryostatin induced a respiratory burst | number of PKCβ transfected cells with Golgi-like fluorescence (PKCβ): decreases the number of cells with PKCβ concentrated in the Golgi | translocation of PKCβ to the plasma membrane (PKCβ): but not with bryostatin-1 | translocation of PKCθ (PKCθ): translocated | translocation of PKCζ (PKCζ): fail to induce translocation

C/C=C(/C)C(=O)O[C@H]1C(C)=C[C@]23C(=O)[C@@H](C=C(CO)[C@@H](O)[C@]12O)[C@H]1[C@@H](C[C@H]3C)C1(C)C [PEP006, Ingenol-3-angelate]
stimulation of phagocytosis of fluorescent latex beads [3]: stimulate phagocytosis in PBMCs | increase of adenovirus replication (number of stained cells) (adenovirus 5; 295 ng/mL): 256%
